US10202361B2, “Pyridazinones as herbicides” (E I DU PONT DE NEMOURS AND COMPANY, priority 2014, dated 2019)

Key:
Assay in all cases: Test D pre-/postemergence controlled growth environment herbicide test
Format in all cases: in vivo
Conditions in all cases: scale 0 to 100
[1] = test system: oilseed rape (Brassica napus)
Text: (§1) Seeds of plant species selected from bluegrass (annual bluegrass, Poa annua), blackgrass (Alopecurus myosuroides), canarygrass (Phalaris minor), chickweed (common chickweed, Stellaria media), galium (catchweed bedstraw, Galium aparine), downy bromegrass (Bromus tectorum), field poppy (Papaver rhoeas), field violet (Viola arvensis), foxtail, green (green foxtail, Setaria viridis), deadnettle (henbit deadnettle, Lamium amplexicaule), ryegrass, Italian (Italian ryegrass, Lolium multiflorum), kochia (Kochia scoparia), lambsquarters (Chenopodium album), oilseed rape (Brassica napus), pigweed (Amaranthus retroflexus), chamomile (scentless chamomile, Matricaria inodora), Russian thistle (Salsola kali), speedwell (bird's-eye speedwell, Veronica persica), barley, spring (spring barley, Hordeum vulgare), wheat, spring (spring wheat, Triticum aestivum), buckwheat, wild (wild buckwheat, Polygonum convolvulus), mustard, wild (wild mustard, Sinapis arvensis), oat, wild (wild oat, Avena fatua), radish, wild (wild radish, Raphanus raphanistrum), windgrass (Apera spica-venti), barley, winter (winter barley, Hordeum vulgare), and wheat, winter (winter wheat, Triticum aestivum) were planted into a silt loam soil and treated preemergence with test chemicals formulated in a non-phytotoxic solvent mixture which included a surfactant.
(§2) At the same time, these species were planted in pots containing Redi-Earth® planting medium (Scotts Company, 14111 Scottslawn Road, Marysville, Ohio 43041) comprising spaghnum peat moss, vermiculite, wetting agent and starter nutrients and treated with postemergence applications of the test chemicals formulated in the same manner. Plants ranged in height from 2 to 18 cm (1- to 4-leaf stage). Treated plants and controls were maintained in a controlled growth environment for 14 to 21 d after which time all species were compared to controls and visually evaluated. Plant response ratings, summarized in Table D, are based on a scale of 0 to 100 where 0 is no effect and 100 is complete control. A dash (-) response means no test result.

[2] = test system: wheat, spring (spring wheat, Triticum aestivum)
Text: as §1, §2

kochia (Kochia scoparia) = test system: kochia (Kochia scoparia)
Text: as §1, §2

[3] = test system: ryegrass, Italian (Italian ryegrass, Lolium multiflorum)
Text: as §1, §2

[4] = test system: oat, wild (wild oat, Avena fatua)
Text: as §1, §2

[5] = test system: field poppy (Papaver rhoeas)
Text: as §1, §2

[6] = test system: galium (catchweed bedstraw, Galium aparine)
Text: as §1, §2

[7] = test system: pigweed (Amaranthus retroflexus)
Text: as §1, §2

[8] = test system: bluegrass (annual bluegrass, Poa annua)
Text: as §1, §2

[9] = test system: Russian thistle (Salsola kali)
Text: as §1, §2

[10] = test system: mustard, wild (wild mustard, Sinapis arvensis)
Text: as §1, §2

SMILES: Cc1cc(=O)n(-c2ccc(F)cc2)nc1Oc1ccnc(C(F)(F)F)c1 [Compound 14, 2-(4-fluorophenyl)-5-methyl-6-[[2-(trifluoromethyl)-4-pyridinyl]oxy]-3 (2H)-pyridazinone]
- Plant response rating ([1]; Postemergence, 16 g ai/ha): 25
- Plant response rating ([1]; Postemergence, 31 g ai/ha): 50
- Plant response rating ([1]; Postemergence, 62 g ai/ha): 15
- Plant response rating ([1]; Postemergence, 125 g ai/ha): 45
- Plant response rating ([1]; Postemergence, 250 g ai/ha): 55
- Plant response rating ([1]; Preemergence, 16 g ai/ha): 0
- Plant response rating ([1]; Preemergence, 31 g ai/ha): 5
- Plant response rating ([1]; Preemergence, 62 g ai/ha): 10
- Plant response rating ([1]; Preemergence, 125 g ai/ha): 15
- Plant response rating ([1]; Preemergence, 250 g ai/ha): 70
- Plant response rating ([2]; Postemergence, 16 g ai/ha): 5
- Plant response rating ([2]; Postemergence, 31 g ai/ha): 10
- Plant response rating ([2]; Postemergence, 62 g ai/ha): 15
- Plant response rating ([2]; Postemergence, 125 g ai/ha): 15
- Plant response rating ([2]; Postemergence, 250 g ai/ha): 15
- Plant response rating ([2]; Preemergence, 16 g ai/ha): 0
- Plant response rating ([2]; Preemergence, 31 g ai/ha): 0
- Plant response rating ([2]; Preemergence, 62 g ai/ha): 0
- Plant response rating ([2]; Preemergence, 125 g ai/ha): 10
- Plant response rating ([2]; Preemergence, 250 g ai/ha): 15
- Plant response rating (kochia (Kochia scoparia); Postemergence, 16 g ai/ha): 60
- Plant response rating (kochia (Kochia scoparia); Postemergence, 31 g ai/ha): 60
- Plant response rating (kochia (Kochia scoparia); Postemergence, 62 g ai/ha): 65
- Plant response rating (kochia (Kochia scoparia); Postemergence, 125 g ai/ha): 85
- Plant response rating (kochia (Kochia scoparia); Postemergence, 250 g ai/ha): 90
- Plant response rating (kochia (Kochia scoparia); Preemergence, 16 g ai/ha): 35
- Plant response rating (kochia (Kochia scoparia); Preemergence, 31 g ai/ha): 65
- Plant response rating (kochia (Kochia scoparia); Preemergence, 62 g ai/ha): 95
- Plant response rating (kochia (Kochia scoparia); Preemergence, 125 g ai/ha): 70
- Plant response rating (kochia (Kochia scoparia); Preemergence, 250 g ai/ha): 100
- Plant response rating ([3]; Postemergence, 16 g ai/ha): 5
- Plant response rating ([3]; Postemergence, 31 g ai/ha): 5
- Plant response rating ([3]; Postemergence, 62 g ai/ha): 10
- Plant response rating ([3]; Postemergence, 125 g ai/ha): 15
- Plant response rating ([3]; Postemergence, 250 g ai/ha): 15
- Plant response rating ([3]; Preemergence, 16 g ai/ha): 0
- Plant response rating ([3]; Preemergence, 31 g ai/ha): 0
- Plant response rating ([3]; Preemergence, 62 g ai/ha): 0
- Plant response rating ([3]; Preemergence, 125 g ai/ha): 15
- Plant response rating ([3]; Preemergence, 250 g ai/ha): 25
- Plant response rating ([4]; Postemergence, 16 g ai/ha): 10
- Plant response rating ([4]; Postemergence, 31 g ai/ha): 10
- Plant response rating ([4]; Postemergence, 62 g ai/ha): 15
- Plant response rating ([4]; Postemergence, 125 g ai/ha): 20
- Plant response rating ([4]; Postemergence, 250 g ai/ha): 30
- Plant response rating ([4]; Preemergence, 16 g ai/ha): 0
- Plant response rating ([4]; Preemergence, 31 g ai/ha): 0
- Plant response rating ([4]; Preemergence, 62 g ai/ha): 0
- Plant response rating ([4]; Preemergence, 125 g ai/ha): 10
- Plant response rating ([4]; Preemergence, 250 g ai/ha): 20
- Plant response rating ([5]; Postemergence, 16 g ai/ha): 75
- Plant response rating ([5]; Postemergence, 31 g ai/ha): 20
- Plant response rating ([5]; Postemergence, 62 g ai/ha): 75
- Plant response rating ([5]; Postemergence, 125 g ai/ha): 50
- Plant response rating ([5]; Postemergence, 250 g ai/ha): 80
- Plant response rating ([5]; Preemergence, 16 g ai/ha): 95
- Plant response rating ([5]; Preemergence, 31 g ai/ha): 100
- Plant response rating ([5]; Preemergence, 62 g ai/ha): 100
- Plant response rating ([5]; Preemergence, 125 g ai/ha): 100
- Plant response rating ([5]; Preemergence, 250 g ai/ha): 100
- Plant response rating ([6]; Postemergence, 16 g ai/ha): 60
- Plant response rating ([6]; Postemergence, 31 g ai/ha): 60
- Plant response rating ([6]; Postemergence, 62 g ai/ha): 60
- Plant response rating ([6]; Postemergence, 125 g ai/ha): 65
- Plant response rating ([6]; Postemergence, 250 g ai/ha): 75
- Plant response rating ([6]; Preemergence, 16 g ai/ha): 0
- Plant response rating ([6]; Preemergence, 31 g ai/ha): 0
- Plant response rating ([6]; Preemergence, 62 g ai/ha): 0
- Plant response rating ([6]; Preemergence, 125 g ai/ha): 5
- Plant response rating ([7]; Postemergence, 16 g ai/ha): 60
- Plant response rating ([7]; Postemergence, 31 g ai/ha): 60
- Plant response rating ([7]; Postemergence, 62 g ai/ha): 70
- Plant response rating ([7]; Postemergence, 125 g ai/ha): 75
- Plant response rating ([7]; Postemergence, 250 g ai/ha): 75
- Plant response rating ([7]; Preemergence, 16 g ai/ha): 35
- Plant response rating ([7]; Preemergence, 31 g ai/ha): 95
- Plant response rating ([7]; Preemergence, 62 g ai/ha): 75
- Plant response rating ([7]; Preemergence, 125 g ai/ha): 100
- Plant response rating ([7]; Preemergence, 250 g ai/ha): 100
- Plant response rating ([8]; Postemergence, 16 g ai/ha): 15
- Plant response rating ([8]; Postemergence, 31 g ai/ha): 20
- Plant response rating ([8]; Postemergence, 62 g ai/ha): 20
- Plant response rating ([8]; Postemergence, 125 g ai/ha): 15
- Plant response rating ([8]; Postemergence, 250 g ai/ha): 30
- Plant response rating ([8]; Preemergence, 16 g ai/ha): 5
- Plant response rating ([8]; Preemergence, 31 g ai/ha): 0
- Plant response rating ([8]; Preemergence, 62 g ai/ha): 0
- Plant response rating ([8]; Preemergence, 125 g ai/ha): 10
- Plant response rating ([8]; Preemergence, 250 g ai/ha): 35
- Plant response rating ([9]; Postemergence, 16 g ai/ha): 20
- Plant response rating ([9]; Postemergence, 31 g ai/ha): 10
- Plant response rating ([9]; Postemergence, 62 g ai/ha): 15
- Plant response rating ([9]; Postemergence, 125 g ai/ha): 20
- Plant response rating ([9]; Postemergence, 250 g ai/ha): 35
- Plant response rating ([9]; Preemergence, 16 g ai/ha): 0
- Plant response rating ([9]; Preemergence, 31 g ai/ha): 50
- Plant response rating ([9]; Preemergence, 62 g ai/ha): 85
- Plant response rating ([9]; Preemergence, 125 g ai/ha): 50
- Plant response rating ([9]; Preemergence, 250 g ai/ha): 95
- Plant response rating ([10]; Postemergence, 16 g ai/ha): 65
- Plant response rating ([10]; Postemergence, 31 g ai/ha): 60
- Plant response rating ([10]; Postemergence, 62 g ai/ha): 65
- Plant response rating ([10]; Postemergence, 125 g ai/ha): 75
- Plant response rating ([10]; Postemergence, 250 g ai/ha): 95
- Plant response rating ([10]; Preemergence, 16 g ai/ha): 30
- Plant response rating ([10]; Preemergence, 31 g ai/ha): 35
- Plant response rating ([10]; Preemergence, 62 g ai/ha): 40
- Plant response rating ([10]; Preemergence, 125 g ai/ha): 100
- Plant response rating ([10]; Preemergence, 250 g ai/ha): 100
